Laboratory results from PMC5218480 (PLoS ONE, 2017).

Test system: MV-4-11 cells
Assay: Gene expression microarray analysis (Affymetrix PrimeView) and GSEA
Assay type: cell-based, human
Set-up: RFU PODN (11730768_x_at) / Fold change /veh PODN (11730768_x_at) / RFU LINC00158 (11744669_a_at) / Fold change /veh LINC00158 (11744669_a_at) / RFU DUSP10 (11751237_a_at) / Fold change /veh DUSP10 (11751237_a_at) / RFU ID3 (11757404_x_at) / Fold change /veh ID3 (11757404_x_at) / RFU PLEKHG5 (11737974_s_at) / Fold change /veh PLEKHG5 (11737974_s_at) / RFU LRRC4B (11730491_at) / Fold change /veh LRRC4B (11730491_at) / RFU GIMAP4 (11747438_a_at) / Fold change /veh GIMAP4 (11747438_a_at) / RFU KRT8 (11758183_x_at) / Fold change /veh KRT8 (11758183_x_at) / RFU CNN1 (11734310_a_at) / Fold change /veh CNN1 (11734310_a_at) / RFU VPS37D (11726825_at) / Fold change /veh VPS37D (11726825_at) / RFU C10orf10 (11716522_x_at) / Fold change /veh C10orf10 (11716522_x_at) / RFU KIR2DL2 /// KIR2DL4 /// KIR2DL5A /// KIR2DL5B /// KIR2DS1 /// KIR2DS2 /// KIR2DS3 /// KIR2DS4 /// KIR3DL3 /// KIR3DL3 /// KIR3DS1 (11738374_at) / Fold change /veh KIR2DL2 /// KIR2DL4 /// KIR2DL5A /// KIR2DL5B /// KIR2DS1 /// KIR2DS2 /// KIR2DS3 /// KIR2DS4 /// KIR3DL3 /// KIR3DL3 /// KIR3DS1 (11738374_at) / RFU C1QL1 (11718748_at) / Fold change /veh C1QL1 (11718748_at) / RFU TMPRSS4 (11747572_a_at) / Fold change /veh TMPRSS4 (11747572_a_at) / RFU HAMP (11756126_x_at) / Fold change /veh HAMP (11756126_x_at) / RFU RNFT2 (11725882_a_at) / Fold change /veh RNFT2 (11725882_a_at) / RFU NR4A2 (11747474_a_at) / Fold change /veh NR4A2 (11747474_a_at) / RFU ABCC12 (11746883_a_at) / Fold change /veh ABCC12 (11746883_a_at) / RFU TMEM136 (11760407_x_at) / Fold change /veh TMEM136 (11760407_x_at) / RFU CLDN22 /// WWC2 (11732394_at) / Fold change /veh CLDN22 /// WWC2 (11732394_at) / RFU HLA-DPB1 (11760878_x_at) / Fold change /veh HLA-DPB1 (11760878_x_at) / RFU SPINT1 (11716480_a_at) / Fold change /veh SPINT1 (11716480_a_at) / RFU GAP43 (11754022_s_at) / Fold change /veh GAP43 (11754022_s_at) / RFU A4GNT (11735810_at) / Fold change /veh A4GNT (11735810_at) / RFU PRB3 (11715151_x_at) / Fold change /veh PRB3 (11715151_x_at) / RFU TUBB4B (11761932_at) / Fold change /veh TUBB4B (11761932_at) / RFU CAPN14 (11732068_a_at) / Fold change /veh CAPN14 (11732068_a_at) / RFU TMCC2 (11721928_a_at) / Fold change /veh TMCC2 (11721928_a_at) / RFU IRGQ (11745062_a_at) / Fold change /veh IRGQ (11745062_a_at) / RFU FAM174B (11720279_a_at) / Fold change /veh FAM174B (11720279_a_at) / RFU TMPRSS4 (11748680_a_at) / Fold change /veh TMPRSS4 (11748680_a_at) / RFU FAM212B (11763350_a_at) / Fold change /veh FAM212B (11763350_a_at) / RFU PLEKHG5 (11743358_a_at) / Fold change /veh PLEKHG5 (11743358_a_at) / RFU ZSCAN30 (11745921_a_at) / Fold change /veh ZSCAN30 (11745921_a_at) / RFU CMKLR1 (11741424_a_at) / Fold change /veh CMKLR1 (11741424_a_at) / RFU LOC101060620 /// MAPK8IP1 (11723275_at) / Fold change /veh LOC101060620 /// MAPK8IP1 (11723275_at) / RFU SPTSSB (11747773_x_at) / Fold change /veh SPTSSB (11747773_x_at) / RFU PRSS12 (11739890_at) / Fold change /veh PRSS12 (11739890_at) / RFU BIN1 (11741810_x_at) / Fold change /veh BIN1 (11741810_x_at) / RFU WNT11 (11732464_a_at) / Fold change /veh WNT11 (11732464_a_at) / RFU C10orf10 (11716521_a_at) / Fold change /veh C10orf10 (11716521_a_at) / RFU C5orf56 (11738089_at) / Fold change /veh C5orf56 (11738089_at) / RFU CYB561 (11721691_x_at) / Fold change /veh CYB561 (11721691_x_at) / RFU ANKRD19P (11752326_a_at) / Fold change /veh ANKRD19P (11752326_a_at) / RFU OR2T12 /// OR2T33 /// OR2T8 (11738714_s_at) / Fold change /veh OR2T12 /// OR2T33 /// OR2T8 (11738714_s_at) / RFU VCAN (11748164_a_at) / Fold change /veh VCAN (11748164_a_at) / RFU JSRP1 (11732532_at) / Fold change /veh JSRP1 (11732532_at) / RFU KRTAP10-11 (11738290_x_at) / Fold change /veh KRTAP10-11 (11738290_x_at) / RFU MYO3A (11730013_a_at) / Fold change /veh MYO3A (11730013_a_at) / RFU EBF3 (11725865_a_at) / Fold change /veh EBF3 (11725865_a_at) / RFU CAMK2N1 (11719241_x_at) / Fold change /veh CAMK2N1 (11719241_x_at) / RFU C5orf56 (11738088_a_at) / Fold change /veh C5orf56 (11738088_a_at) / RFU OLFML3 (11715873_a_at) / Fold change /veh OLFML3 (11715873_a_at) / RFU LOC100653217 /// NTM (11731650_a_at) / Fold change /veh LOC100653217 /// NTM (11731650_a_at) / RFU MAPK11 (11762145_a_at) / Fold change /veh MAPK11 (11762145_a_at) / RFU FIZ1 (11724087_x_at) / Fold change /veh FIZ1 (11724087_x_at) / RFU OASL (11726364_x_at) / Fold change /veh OASL (11726364_x_at) / RFU SOX15 (11748057_x_at) / Fold change /veh SOX15 (11748057_x_at) / RFU CD79A (11719716_a_at) / Fold change /veh CD79A (11719716_a_at) / RFU HIST1H1D (11736915_at) / Fold change /veh HIST1H1D (11736915_at) / RFU CASKIN2 (11723855_a_at) / Fold change /veh CASKIN2 (11723855_a_at) / RFU LOC730098 (11760151_x_at) / Fold change /veh LOC730098 (11760151_x_at) / RFU OR4N2 (11742367_at) / Fold change /veh OR4N2 (11742367_at) / RFU PRRT2 (11749266_a_at) / Fold change /veh PRRT2 (11749266_a_at) / RFU SNX32 (11753110_a_at) / Fold change /veh SNX32 (11753110_a_at) / RFU CDHR5 (11726645_a_at) / Fold change /veh CDHR5 (11726645_a_at) / RFU RCAN1 (11760418_a_at) / Fold change /veh RCAN1 (11760418_a_at) / RFU FAM167A (11723789_a_at) / Fold change /veh FAM167A (11723789_a_at) / RFU FAM26E (11764081_at) / Fold change /veh FAM26E (11764081_at) / RFU ISYNA1 (11749810_s_at) / Fold change /veh ISYNA1 (11749810_s_at) / RFU ACY1 (11761880_at) / Fold change /veh ACY1 (11761880_at) / RFU 11764098_at / Fold change /veh 11764098_at / RFU SAMD14 (11745864_x_at) / Fold change /veh SAMD14 (11745864_x_at) / RFU NPB (11741838_a_at) / Fold change /veh NPB (11741838_a_at) / RFU TMPRSS6 (11731388_a_at) / Fold change /veh TMPRSS6 (11731388_a_at) / RFU KRTAP10-2 (11738614_at) / Fold change /veh KRTAP10-2 (11738614_at) / RFU ARHGAP8 /// PRR5-ARHGAP8 (11727945_x_at) / Fold change /veh ARHGAP8 /// PRR5-ARHGAP8 (11727945_x_at) / RFU KRTAP5-7 /// NADSYN1 (11734609_at) / Fold change /veh KRTAP5-7 /// NADSYN1 (11734609_at) / RFU RASL12 (11751679_a_at) / Fold change /veh RASL12 (11751679_a_at) / RFU CDKN2B (11736163_a_at) / Fold change /veh CDKN2B (11736163_a_at) / RFU PRF1 (11729649_at) / Fold change /veh PRF1 (11729649_at) / RFU, ZNF638 /// ZNF638-IT1 / Fold change vs veh, ZNF638 /// ZNF638-IT1 / RFU, PANK3 / Fold change vs veh, PANK3 / RFU, SH3YL1 / Fold change vs veh, SH3YL1 / RFU, ZEB2 / Fold change vs veh, ZEB2 / RFU, NRIP1 / Fold change vs veh, NRIP1 / RFU, PTTG1IP / Fold change vs veh, PTTG1IP / RFU, CAPN2 / Fold change vs veh, CAPN2 / RFU, MED14 / Fold change vs veh, MED14 / RFU, SNORA58 / Fold change vs veh, SNORA58 / RFU, C1orf63 / Fold change vs veh, C1orf63 / RFU, LRRFIP1 / Fold change vs veh, LRRFIP1 / RFU, NDUFAF7 / Fold change vs veh, NDUFAF7 / RFU, SLC12A2 / Fold change vs veh, SLC12A2 / RFU, IBTK / Fold change vs veh, IBTK / RFU, ESF1 / Fold change vs veh, ESF1 / Fold change vs veh, TMEM50B / RFU, TAOK1 / Fold change vs veh, TAOK1 / RFU, ACBD3 / Fold change vs veh, ACBD3 / RFU, TMA16 / Fold change vs veh, TMA16 / RFU, RWDD3 / Fold change vs veh, RWDD3 / RFU, BCAT1 / Fold change vs veh, BCAT1 / RFU, EDEM3 / Fold change vs veh, EDEM3 / RFU, TMEM33 / Fold change vs veh, TMEM33 / RFU, WDR75 / Fold change vs veh, WDR75 / RFU, AHCTF1 / Fold change vs veh, AHCTF1 / RFU, TFRC / Fold change vs veh, TFRC / RFU, ZDHHC17 / Fold change vs veh, ZDHHC17 / RFU, NOM1 / Fold change vs veh, NOM1 / RFU, ARL8B / Fold change vs veh, ARL8B / RFU, ZBTB11 / Fold change vs veh, ZBTB11 / RFU, TAMM41 / Fold change vs veh, TAMM41 / RFU, KIAA1704 /// LOC100996395 / Fold change vs veh, KIAA1704 /// LOC100996395 / RFU, ING1 / Fold change vs veh, ING1 / RFU, TRMT61B / Fold change vs veh, TRMT61B / RFU, FUBP3 / Fold change vs veh, FUBP3 / RFU, TP53 / Fold change vs veh, TP53 / RFU, TNKS2 / Fold change vs veh, TNKS2 / RFU, ZFP14 / Fold change vs veh, ZFP14 / RFU, ACTR2 / Fold change vs veh, ACTR2 / RFU, PPP3R1 / Fold change vs veh, PPP3R1 / RFU, PIK3R1 / Fold change vs veh, PIK3R1 / RFU, HNRNPA1 / Fold change vs veh, HNRNPA1 / RFU, RNF170 / Fold change vs veh, RNF170 / RFU, ZNF28 / Fold change vs veh, ZNF28 / RFU, RNGTT / Fold change vs veh, RNGTT / RFU, OGT / Fold change vs veh, OGT / RFU, BRD1 / Fold change vs veh, BRD1 / RFU, MARS / Fold change vs veh, MARS / RFU, ZNF655 / Fold change vs veh, ZNF655 / RFU, FAHD1 / Fold change vs veh, FAHD1 / RFU, BDP1 / Fold change vs veh, BDP1 / RFU, LRRCC1 / Fold change vs veh, LRRCC1 / RFU, ARID1A / Fold change vs veh, ARID1A / RFU, ZNF146 / Fold change vs veh, ZNF146 / RFU, ZNF330 / Fold change vs veh, ZNF330 / RFU, GPN3 / Fold change vs veh, GPN3 / RFU, C9orf123 / Fold change vs veh, C9orf123 / RFU, N4BP2L2 / Fold change vs veh, N4BP2L2 / RFU, ARFIP1 / Fold change vs veh, ARFIP1 / RFU, FAM179B / Fold change vs veh, FAM179B / RFU, BCL10 / Fold change vs veh, BCL10 / RFU, UHRF1BP1L / Fold change vs veh, UHRF1BP1L / RFU, BET1 / Fold change vs veh, BET1 / RFU, CNOT2 / Fold change vs veh, CNOT2 / RFU, ZNF268 / Fold change vs veh, ZNF268 / Fold change vs veh, ZNF507 / RFU, DGCR2 / Fold change vs veh, DGCR2 / RFU, WDSUB1 / Fold change vs veh, WDSUB1 / Fold change vs veh, HSP90B1 /// MIR3652 / RFU, ADSS / Fold change vs veh, ADSS / RFU, GK / Fold change vs veh, GK / RFU, ZNF148 / Fold change vs veh, ZNF148 / RFU, TAF9 / Fold change vs veh, TAF9 / RFU, SLC1A5 / Fold change vs veh, SLC1A5 / RFU, SLMO2 / Fold change vs veh, SLMO2 / RFU, ABCC4 / Fold change vs veh, ABCC4 / RFU, LOC101060439 /// RAP1B / Fold change vs veh, LOC101060439 /// RAP1B / RFU, RFX7 / Fold change vs veh, RFX7 / RFU, GTPBP10 / Fold change vs veh, GTPBP10 / RFU, CNEP1R1 / Fold change vs veh, CNEP1R1 / RFU, BIVM-ERCC5 /// ERCC5 / Fold change vs veh, BIVM-ERCC5 /// ERCC5 / RFU, ILF3 / Fold change vs veh, ILF3 / RFU 11762660_at / Fold change /veh 11762660_at / RFU VCAN (11757783_s_at) / Fold change /veh VCAN (11757783_s_at) / RFU DDX43 (11728927_at) / Fold change /veh DDX43 (11728927_at) / RFU KRT8 (11758188_x_at) / Fold change /veh KRT8 (11758188_x_at) / RFU NKD1 (11759106_at) / Fold change /veh NKD1 (11759106_at) / RFU SRD5A1 (11742802_a_at) / Fold change /veh SRD5A1 (11742802_a_at) / RFU TPSAB1 /// TPSB2 (11721975_s_at) / Fold change /veh TPSAB1 /// TPSB2 (11721975_s_at) / RFU GSTM3 (11746129_a_at) / Fold change /veh GSTM3 (11746129_a_at) / RFU IL23R (11737362_x_at) / Fold change /veh IL23R (11737362_x_at) / RFU TMEM51 (11727254_a_at) / Fold change /veh TMEM51 (11727254_a_at) / RFU PIWIL2 (11732686_x_at) / Fold change /veh PIWIL2 (11732686_x_at) / RFU ORM1 (11744905_x_at) / Fold change /veh ORM1 (11744905_x_at) / RFU CCDC152 (11743942_at) / Fold change /veh CCDC152 (11743942_at) / RFU ECM1 (11717891_a_at) / Fold change /veh ECM1 (11717891_a_at) / RFU IL23R (11748794_a_at) / Fold change /veh IL23R (11748794_a_at) / RFU TNFAIP8L3 (11732012_x_at) / Fold change /veh TNFAIP8L3 (11732012_x_at) / RFU MBOAT4 (11741988_at) / Fold change /veh MBOAT4 (11741988_at) / RFU 11764193_at / Fold change /veh 11764193_at / RFU TMEM53 (11763286_at) / Fold change /veh TMEM53 (11763286_at) / RFU MAGEB2 (11727129_at) / Fold change /veh MAGEB2 (11727129_at) / RFU TMEM200A (11744735_a_at) / Fold change /veh TMEM200A (11744735_a_at) / RFU CCDC152 (11751479_a_at) / Fold change /veh CCDC152 (11751479_a_at) / RFU FAM211A (11726209_a_at) / Fold change /veh FAM211A (11726209_a_at) / RFU RGS16 (11746705_a_at) / Fold change /veh RGS16 (11746705_a_at) / RFU VCAN (11755009_s_at) / Fold change /veh VCAN (11755009_s_at) / RFU RHOB (11743442_s_at) / Fold change /veh RHOB (11743442_s_at) / RFU RGS16 (11720943_a_at) / Fold change /veh RGS16 (11720943_a_at) / RFU RGS16 (11720944_at) / Fold change /veh RGS16 (11720944_at) / RFU, VPS4B / Fold change vs veh, VPS4B / RFU, CREB1 / Fold change vs veh, CREB1 / RFU, DNAJC13 / Fold change vs veh, DNAJC13 / RFU, GNAQ / Fold change vs veh, GNAQ / RFU, CDK5R1 / Fold change vs veh, CDK5R1 / RFU, ZRANB3 / Fold change vs veh, ZRANB3 / RFU, CUL4A / Fold change vs veh, CUL4A / RFU, CCNY / Fold change vs veh, CCNY / RFU, UFL1 / Fold change vs veh, UFL1 / RFU, COG3 / Fold change vs veh, COG3 / RFU, DIAPH2 / Fold change vs veh, DIAPH2 / RFU, SKA2 / Fold change vs veh, SKA2 / RFU, AFF3 / Fold change vs veh, AFF3 / RFU, LMF1 / Fold change vs veh, LMF1 / RFU, IPO11 / Fold change vs veh, IPO11 / RFU, DFFB / Fold change vs veh, DFFB / RFU, FOXP1 / Fold change vs veh, FOXP1 / RFU, CARD8 / Fold change vs veh, CARD8 / RFU, STRN3 / Fold change vs veh, STRN3 / RFU, ADK / Fold change vs veh, ADK / RFU, RASSF2 / Fold change vs veh, RASSF2 / RFU, WIPF1 / Fold change vs veh, WIPF1 / RFU, LARP1B / Fold change vs veh, LARP1B / RFU, RASA1 / Fold change vs veh, RASA1 / RFU, RB1 / Fold change vs veh, RB1 / RFU, PPFIA1 / Fold change vs veh, PPFIA1 / RFU, MAT2A / Fold change vs veh, MAT2A / RFU, CCT5 / Fold change vs veh, CCT5 / RFU, WDR92 / Fold change vs veh, WDR92 / RFU, CUX1 / Fold change vs veh, CUX1 / RFU, TTC7A / Fold change vs veh, TTC7A / RFU, TMEM135 / Fold change vs veh, TMEM135 / RFU, DEPTOR / Fold change vs veh, DEPTOR / RFU, CPM / Fold change vs veh, CPM / RFU, DNAJB6 / Fold change vs veh, DNAJB6 / RFU, CACNA2D3 / Fold change vs veh, CACNA2D3 / RFU, DTX4 / Fold change vs veh, DTX4 / RFU, TFCP2 / Fold change vs veh, TFCP2 / RFU, GMCL1 /// GMCL1P1 / Fold change vs veh, GMCL1 /// GMCL1P1 / RFU, AEBP2 / Fold change vs veh, AEBP2 / RFU, SNHG1 /// SNORD22 /// SNORD25 /// SNORD26 /// SNORD27 /// SNORD28 /// SNORD29 /// SNORD31 / Fold change vs veh, SNHG1 /// SNORD22 /// SNORD25 /// SNORD26 /// SNORD27 /// SNORD28 /// SNORD29 /// SNORD31 / Fold change (Aza/veh), C12orf56 (ProbeSet 11735607_a_at) / Fold change (ACY-1035/veh), C12orf56 (ProbeSet 11735607_a_at) / Fold change (Aza/veh), FGFR1OP (ProbeSet 11751329_s_at) / Fold change (ACY-1035/veh), FGFR1OP (ProbeSet 11751329_s_at) / Fold change (Aza/veh), VPS36 (ProbeSet 11739960_a_at) / Fold change (ACY-1035/veh), VPS36 (ProbeSet 11739960_a_at) / RFU SYPL1 (11715823_x_at) / Fold change /veh SYPL1 (11715823_x_at) / RFU IGFBP7 (11715501_s_at) / Fold change /veh IGFBP7 (11715501_s_at) / RFU REEP3 (11722064_at) / Fold change /veh REEP3 (11722064_at) / RFU IGLL1 (11728026_x_at) / Fold change /veh IGLL1 (11728026_x_at): dose or concentration left out as unconfirmed
Conditions: MV-4-11 cells, 48 hours

With Nc1ncn([C@@H]2O[C@H](CO)[C@@H](O)[C@H]2O)c(=O)n1 [azacitidine] the “RFU PIWIL2 (11732686_x_at)” value was 15.01 RFU.
